Results reported in PMC7016953 (Cells, 2020).

Legend:
[1] = tested on: T1, TRPC6; assay: Whole-cell patch-clamp recordings in HEK TRPC6-YFP cells; format: cell-based, human; settings: 100 µM artemisinin
T1 construct: expressed in transfected cells
Procedure: The recordings of TRPC3, TRPC6, or TRPC7 membrane currents in HEK293 or PC12 cells were realized by using a Multiclamp 700B amplifier with a Digidata 1440A digitizer controlled by the PClamp 10 software (all Molecular Devices, Sunnyvale, CA, U.S.A.). Recordings were obtained at room temperature either in the whole-cell or in an outside-out configuration as indicated. Cells were seeded as described above, but at lower density, mounted in a chamber (Warner Instruments, Hamden, CT; U.S.A.), placed onto the stage of an inverted microscope, and perfused with required solution. The standard extracellular solution contained 140 mM NaCl, 5 mM CsCl, 2 mM MgCl2, 1 mM CaCl2, 10 mM HEPES, and 0.035% BSA adjusted to pH 7.4 with NaOH. The composition of standard intracellular solution was 140 mM CsCl, 1 mM MgCl2, 5 mM EGTA, and 10 mM HEPES adjusted to pH 7.25 with CsOH; the osmolarity was 295 mOsm l^−1. In outside-out measurements, the pipette solution contained 5 mM EGTA and 1.1 mM CaCl2 to achieve a calculated free Ca^2+ concentration of 100 nM.
Patch pipettes were pulled from borosilicate glass capillaries BG150F-8P (Science Products, Hofheim, Germany) with a PIP6 pipette puller (HEKA Elektronik, Lambrecht, Germany). […] In all whole-cell measurements, the series resistance was lower than 13 MΩ, and compensated by 70%. […]

[2] = tested on: mTRPM3α2; assay: Selectivity profiling, fluo-4 [Ca2+]i response, TRPM3; format: cell-based, mouse; settings: 100 µM
Procedure: Human embryonic kidney 293 (HEK293) cells were stably transfected with expression plasmids that encode hTRPC3-YFP, hTRPC6-YFP, hTRPC7-YFP, mTRPC4ß-YFP, rTRPV1-CFP, rTRPV2-YFP, rTRPV3-YFP, mTRPV4-YFP, or hTRPM2 as previously described. Cell lines were cultured in Earle’s minimum essential medium (MEM; Sigma, Munich, Germany), supplemented with 10% fetal calf serum (Gibco Thermo Fisher Scientific, Darmstadt, Germany), 2 mM L-glutamine, and required concentrations of geneticin in a range of 0.4–1 mg/mL. A HEK293mTRPC5-YFP cell line was maintained and induced as described before. […] For electrophysiological and single cell [Ca^2+]i imaging experiments, PC12 cells were plated onto 25 mm poly-L-lysine-coated glass coverslips and measured 24–48 h after seeding. […]
The primary compound screen and the generation of concentration response curves in HEK293 cells or in PC12 cells were performed by using a custom-made fluorescence plate imager built into a robotic liquid handling station equipped with a 96-tip multichannel head (Freedom Evo 150, Tecan, Männedorf, Switzerland) as described previously. […] Plates were mounted on the imager, and fluorescence signals were recorded with a cooled Zyla 5.5 camera (Andor, Belfast, UK) through a 515 nm long pass filter. […] When inhibitory potencies were evaluated, a second pipetting step with the respective reference agonist was performed. […]

## C[C@@H]1CC[C@H]2[C@@H](C)C(=O)O[C@@H]3O[C@@]4(C)CC[C@@H]1[C@]32OO4 [artemisinin]
[1]
  ionic currents in TRPC6-expressing HEK cells: remained unaffected
[2]
  [Ca2+]i response, TRPM3: none of the cell lines responded
